From patent publication US8524911B2, “3-arylamino pyridine derivatives” (Merck Serono SA, priority 2004, dated 2013) come the findings set out here.

One data set deals with human MEK1 (Homo sapiens, UniProt Q02750). Briefly: MEK-1 Enzyme Assay (LANCE-HTRF). In kind it is biochemical. The following applies: 100 nM MEK1, 15 μM ATP, 300 nM ERK2, two hours; read-out: MEK inhibition. A digest of the protocol:
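TR-FRET readout of MEK1-catalysed ERK1 phosphorylation; after a 2 h reaction, Eu-anti-PY20 (5 nM) and anti-GST-APC (50 nM) were added in buffer with 50 mM EDTA and 0.05% BSA, then incubated 1 h in the dark.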
(In general: TR-FRET usually uses a lanthanide donor and a delayed reading to cut background.)

The nature of data set [1]: Microsomal stability assay, HLM. In kind it is in vitro ADME. The following applies: pooled human liver microsomes, pH 7.4; 3 μM compound, 0.5 mg/ml human liver microsomes, 37° C., 2 mM NADPH; read-out: HLM t1/2. The method, then:
(§1) Assay 3: Microsomal Stability Assay
(§2) Compounds were tested on their stability in human, rat and mouse liver microsomal preparations (HLM, RLM and MLM respectively). At a final concentration of 3 μM, compounds were incubated at 37° C. with 0.5 mg/ml human, rat or mouse liver microsomes in a buffer containing 50 mM phosphate, pH 7.4 and 2 mM NADPH. Pooled human liver microsomes or pooled male rat liver microsomes (Sprague Dawley) were obtained from NatuTec (Frankfurt, Germany). Incubations without NADPH served as negative controls. Reactions were stopped after 0, 15, 30, 45 or 60 min by the addition of acetonitrile and microsomes were pelleted by centrifugation (10 min at 6200×g). Supernatants were analyzed by HPLC regarding the concentration of mother compound. Finally, the half life of compounds in the regarding microsomal preparation was calculated.
For orientation: Liver microsomes are vesicles of endoplasmic reticulum, rich in cytochrome P450 enzymes.

Data set [2] is described as follows: Microsomal stability assay, RLM. The format is in vitro ADME. The following applies: male, Sprague Dawley, pooled rat liver microsomes, pH 7.4; 3 μM compound, 0.5 mg/ml rat liver microsomes, 37° C., 2 mM NADPH; read-out: RLM t1/2. The protocol: as §1, §2
For another data set, the system named is Murine colon C26 cells. Description: Tumor cell proliferation assay (ATP Lite), C26. The format is cell-based. Conditions: Mus musculus, 96 h, 4 days. Put shortly:
(§3)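 Cells seeded at 1500/well (C26) or 2000/well (A375, MiaPaCa-2) grew overnight, then were exposed to serially diluted compounds (0.25% DMSO final) for 4 days in serum-containing DMEM or RPMI. Viability read by ATPlite luminescence; IC50 is the concentration giving 50% cell death.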

For data set [3], the system named is human melanoma A375 cells. Description: Tumor cell proliferation assay (ATP Lite), A375. Conditions: A-375, 96 h, 4 days. The format is cell-based. Put shortly: as §3
Data set [4] deals with human pancreatic MiaPaCa-2 cells. Briefly: Tumor cell proliferation assay (ATP Lite), MiaPaCa-2. In kind it is cell-based. The following applies: MIA PaCa-2, 96 h, 4 days. A digest of the protocol: as §3
Another data set concerns Caco-2 cells. Briefly: Caco-2 permeability assay. The format is in vitro ADME. Conditions: 10 μM, pH 7.4, 120 minutes. The protocol: Assay 4: Caco-2 Permeability Assay
Caco-2 cells obtained from the ATCC at passage number 27 are used. Cells (passage number 40-60) were seeded on to Millipore Multiscreen Caco-2 plates or Falcon HTS inserts at 1×10^5 cells/cm2. Cells were cultured for 20 days in DMEM and media was changed every two or three days. On day 20 the permeability study was performed.
Permeability was studied by applying compound to the apical surface of cell monolayers and measuring compound permeation into the basolateral compartment. The experiment was also performed in the reverse direction (B-A) to investigate active transport. Hanks Balanced Salt Solution (HBSS) pH 7.4 buffer with 25 mM HEPES and 10 mM glucose at 37° C. was used as the medium in permeability studies. Incubations were carried out in an atmosphere of 5% CO2 with a relative humidity of 95%.
The monolayers were prepared by rinsing both basolateral and apical surfaces twice with HBSS at 37° C. Cells were then incubated with HBSS in both apical and basolateral compartments for 40 minutes to stabilize physiological parameters.
HBSS was then removed from the apical compartment and replaced with test compound dosing solutions. The solutions were made by diluting 10 mM DMSO concentrates with HBSS to give a final test compound concentration of 10 μM (final DMSO concentration adjusted to 1%). The fluorescent integrity marker lucifer yellow was also included in the dosing solution. Analytical standards were made from dosing solutions. Test compound permeability was assessed in duplicate. On each plate compounds of known permeability characteristics were run as controls.
The apical compartment inserts were then placed into ‘companion’ plates containing fresh HBSS. For basolateral to apical (B-A) experiments the experiment was initiated by replacing buffer in the inserts then placing them in companion plates containing dosing solutions. At 120 minutes the companion plate was removed and apical and basolateral samples diluted for analysis by LC-MS/MS (the donor compartment was also sampled to permit determination of starting concentration after non-specific binding has occurred).
The integrity of the monolayers throughout the experiment is checked by monitoring lucifer yellow permeation using fluorimetric analysis. Lucifer yellow permeation was low if monolayers have not been damaged. Test and control compounds were quantified by LC-MS/MS cassette analysis using a 5-point calibration with appropriate dilution of the samples. Should lucifer yellow Papps were above QC limits in more than one well per test compound, the compound was re-tested.
The permeability coefficient for each compound (Papp) was calculated from the following equation: Papp=[dQ/dt]/[C0×A]
Whereby dQ/dt is the rate of permeation of the drug across the cells, C0 is the donor compartment concentration at time zero and A is the area of the cell monolayer. C0 is obtained from analysis of the donor compartment at the end of the incubation period.
Test compounds were grouped into low, medium or high absorption potential based on comparison with control compounds, which have known human absorption.
In addition, permeation was studied in both directions across the cells, and an asymmetry index was reported from mean A-B and B-A data. This was derived from: Papp(B-A)/Papp(A-B)
Wherein “+” means a caco A-B and caco B-A value of 1-10 and “++” means a caco A-B and caco B-A value of 11-100.

human MEK1, sequence (Q02750 whole entry): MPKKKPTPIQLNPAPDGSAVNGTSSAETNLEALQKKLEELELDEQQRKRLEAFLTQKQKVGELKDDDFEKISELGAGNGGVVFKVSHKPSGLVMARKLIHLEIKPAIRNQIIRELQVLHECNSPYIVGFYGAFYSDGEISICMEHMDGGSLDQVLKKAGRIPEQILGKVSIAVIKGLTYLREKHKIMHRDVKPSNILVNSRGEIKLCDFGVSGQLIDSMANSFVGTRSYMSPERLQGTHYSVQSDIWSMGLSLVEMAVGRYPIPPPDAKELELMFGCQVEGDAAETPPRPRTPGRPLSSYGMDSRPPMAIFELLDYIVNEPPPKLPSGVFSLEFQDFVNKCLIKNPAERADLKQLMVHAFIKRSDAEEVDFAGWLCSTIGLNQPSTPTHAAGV

On to `Cc1cc(I)ccc1Nc1cnccc1C(=O)NS(C)(=O)=O` [Example 123, N-[3-(4-Iodo-2-methyl-phenylamino)-pyridine-4-carbonyl]-methanesulfonamide], for which the IC50 on human MEK1 was less than 1000 nM. The half-life at 3 µM in data set [1] lay in the range of 31 to 120 min; in data set [2], 1 to 30 min.
For the molecule `O=C(NCCc1cccc(Cl)c1)c1ccncc1Nc1ccc(I)cc1F` [Example 29, N-[2-(3-chlorophenyl)ethyl]-3-[(2-fluoro-4-iodophenyl)-amino]isonicotinamide], the IC50 on human MEK1 is less than 1000 nM; in the data set on Murine colon C26 cells, 3 to 10 µM; in data set [3], no more than 3 µM; in data set [4], 3 to 10 µM.
As to `O=C(NC1CCCC1)c1ccncc1Nc1ccc(I)cc1F` [Example 60, N-cyclopentyl-3-[(2-fluoro-4-iodophenyl)amino]isonicotinamide], the IC50 at human MEK1 was less than 1000 nM; with Murine colon C26 cells it was no more than 3 µM; in data set [3], no more than 3 µM; in data set [4], no more than 3 µM.
Consider `NC(=O)c1ccncc1Nc1ccc(I)cc1` [Example 67, 3-(4-iodo-phenylamino)-isonicotinamide], for which the IC50 at human MEK1 was less than 1000 nM; in the data set on Murine colon C26 cells, no more than 3 µM; in data set [3], no more than 3 µM; in data set [4], no more than 3 µM.
For `O=C(NNc1ccnc2cc(Cl)ccc12)c1ccncc1Nc1ccc(I)cc1F` [Example 56, N′-(7-chloroquinolin-4-yl)-3-[(2-fluoro-4-iodophenyl)amino]-isonicotino-hydrazide], the IC50 at human MEK1 was 1000 to 10000 nM; in the data set on Murine colon C26 cells it was 3 to 10 µM; in data set [3], no more than 3 µM; in data set [4], 3 to 10 µM.
For `CNCCNc1nnc(-c2ccncc2Nc2ccc(Br)cc2F)o1` [Example 128, N-{5-[3-(4-Bromo-2-fluoro-phenylamino)-pyridin-4-yl]-[1,3,4]oxadiazol-2-yl}-N′-methyl-ethane-1,2-diamine], the IC50 at human MEK1 was less than 1000 nM. Further, the half-life at 3 µM in data set [1] is greater than 120 min; in data set [2], 31 to 120 min. The “Caco A-B” value in the data set with Caco-2 cells (Papp apical to basolateral) is “++ (a caco A-B and caco B-A value of 11-100)”. In the data set on Caco-2 cells (Papp basolateral to apical), the “Caco B-A” value is “++ (a caco A-B and caco B-A value of 11-100)”.
For the molecule `COc1ccccc1CCNC(=O)c1ccncc1Nc1ccc(I)cc1F` [Example 27, 3-[(2-fluoro-4-iodophenyl)amino]-N-[2-(2-methoxyphenyl)-ethyl]isonicotinamide], the IC50 on human MEK1 was less than 1000 nM; with Murine colon C26 cells it was 3 to 10 µM; in data set [3], 3 to 10 µM; in data set [4] it was 3 to 10 µM.
As to `O=C(O)c1ccc(CCNC(=O)c2ccncc2Nc2ccc(I)cc2F)cc1` [Example 102, 4-[2-({3-[(2-fluoro-4-iodophenyl)amino]isonicotinoyl}-amino)ethyl]benzoic acid], the IC50 is less than 1000 nM on human MEK1, 3 to 10 µM in the data set with Murine colon C26 cells, no more than 3 µM in data set [3] and 3 to 10 µM in data set [4].
In the case of `O=C(NCCN1CCOCC1)c1cc(Br)ncc1Nc1ccc(I)cc1F` [Example 88, 2-Bromo-5-(2-fluoro-4-iodo-phenylamino)-N-(2-morpholin-4-yl-ethyl)-isonicotinamide], the IC50 on human MEK1 is less than 1000 nM; in the data set on Murine colon C26 cells it was 3 to 10 µM; in data set [3] it was 3 to 10 µM; in data set [4], 3 to 10 µM.
Consider `O=C(NOC[C@H](O)CO)c1ccncc1Nc1ccc(I)cc1F` [Example 7, N-{[(2R)-2,3-dihydroxypropyl]oxy}-3-[(2-fluoro-4-iodophenyl)-amino]isonicotin-amide], for which the IC50 was less than 1000 nM at human MEK1, no more than 3 µM in the data set with Murine colon C26 cells, no more than 3 µM in data set [3] and no more than 3 µM in data set [4].
Take `O=C(NN1CCCCCC1)c1ccncc1Nc1ccc(I)cc1F` [Example 42, N-azepan-1-yl-3-[(2-fluoro-4-iodophenyl)amino]isonicotinamide]: the IC50 on human MEK1 is less than 1000 nM; in the data set on Murine colon C26 cells it was 3 to 10 µM; in data set [3], no more than 3 µM; in data set [4] it was 3 to 10 µM.
For `O=C(NCCOc1ccccc1)c1ccncc1Nc1ccc(I)cc1F` [Example 26, 3-[(2-fluoro-4-iodophenyl)amino]-N-(2-phenoxyethyl)-isonicotinamide], the IC50 was less than 1000 nM at human MEK1, 3 to 10 µM in the data set with Murine colon C26 cells, no more than 3 µM in data set [3] and 3 to 10 µM in data set [4].
For the molecule `COC(=O)c1ccncc1Nc1ccc(I)cc1Cl` [Example 10, Methyl 3-[(2-chloro-4-iodophenyl)amino]isonicotinate], the IC50 on human MEK1 was less than 1000 nM; in the data set on Murine colon C26 cells, 3 to 10 µM; in data set [3], no more than 3 µM; in data set [4] it was no more than 3 µM.
Regarding `CC(C)(C)OC(=O)NNC(=O)c1ccncc1Nc1ccc(I)cc1F` [Example 45, tert-butyl 2-{3-[(2-fluoro-4-iodophenyl)amino]-isonicotinoyl}hydrazine-carboxylate], the IC50 at human MEK1 is less than 1000 nM; with Murine colon C26 cells it was 3 to 10 µM; in data set [3], no more than 3 µM; in data set [4], 3 to 10 µM.
For `O=C(NNC(=O)c1n[nH]c2ccccc12)c1ccncc1Nc1ccc(I)cc1F` [Example 28, N′-{3-[(2-fluoro-4-iodophenyl)amino]isonicotinoyl}-1H-indazole-3-carbohydrazide], the IC50 was less than 1000 nM on human MEK1, 3 to 10 µM in the data set on Murine colon C26 cells, no more than 3 µM in data set [3] and 3 to 10 µM in data set [4].
In the case of `O=C(NNc1ccccc1)c1ccncc1Nc1ccc(I)cc1F` [Example 32, 3-[(2-fluoro-4-iodophenyl)amino]-N′-phenylisonicotinohydrazide], the IC50 at human MEK1 is less than 1000 nM; with Murine colon C26 cells, no more than 3 µM; in data set [3] it was no more than 3 µM; in data set [4], no more than 3 µM.
Take `Cc1cccc(NNC(=O)c2ccncc2Nc2ccc(I)cc2F)c1` [Example 90, 3-[(2-fluoro-4-iodophenyl)amino]-N′-(3-methylphenyl)isonicotino-hydrazide]: the IC50 at human MEK1 is less than 1000 nM; in the data set with Murine colon C26 cells it was no more than 3 µM; in data set [3], no more than 3 µM; in data set [4], no more than 3 µM.
Consider `CNC(=O)c1ccncc1Nc1ccc(I)cc1Cl` [Example 22, 3-[(2-chloro-4-iodophenyl)amino]-N-methylisonicotinamide], for which the IC50 on human MEK1 was less than 1000 nM; with Murine colon C26 cells it was no more than 3 µM; in data set [3], no more than 3 µM; in data set [4], no more than 3 µM.
